Where a SMILES comes first, the peptide text is derived from it. [ ]: non-standard residue; d: D form. The star is where a group is joined. Nle = CCCC[C@H](N)C(=O)O; Cbz = O=C(OCc1ccccc1)*
Tests used:
Assay type in all cases: cell-based, human
NICD [1] = assay: Western blot of NICD in Molt-4 cells pretreated with proteasome inhibitors, then Extract 12; settings: MOLT-4 cells pretreated 1 h (MG132 2.5-7.5 μM; MG101 10 μM), then Extract 12 5 μg/mL 3 h
Description: FIG. 14 is a micrograph of a western blot analysis of NICD in Molt-4 cells pretreated with MG132 (proteasome inhibitor; 0, 2.5 μM, 5 μM, 7.5 μM) for 1 h and then treated with vehicle or Extract 12 (5 μg/mL) for 3 h. β-tubulin served as a loading control.
FIG. 15 is a micrograph of western blot analysis of NICD in Molt-4 cells pretreated with MG101 (proteasome inhibitor; 0, 10 μM) for 1 h and then treated with vehicle or Extract 12 (5 μg/mL) for 3 h. β-tubulin served as a loading control.
(§1) Cell Lysis and Western Blot Analyses
Following treatment, cells were solubilized in radioimmunoprecipitation assay buffer (RIPA) (Sigma-Aldrich, R0278) and the protein concentration in lysates were determined using a Bradford reagent (Sigma-Aldrich, B6916). Equal amounts of protein were resolved by Novex™ 4-20% Tris-Glycine Mini Gels (Thermo Fisher Scientific, XP04200BOX) and electrophoretically transferred to a nitrocellulose membrane (Bio-Rad, 1704159S). Membranes were blocked with TBS 0.1% Tween 20 buffer containing 5% bovine serum albumin (Sigma, A7906) for 1 h. […] Immunoreactive bands were detected by Luminata™ HRP substrate (Millipore, WBLUR0500) and visualized using a MicroChemi imager (DNR Bioimaging Systems).

MOLT-4 cells = assay: AlamarBlue cell viability assay, MOLT-4; settings: CBD, CBDV, CF1 separately and in combinations, 24 h
Description: (§2) Cells were cultured in 96-well plates. At 100,000 cells/well the media was replaced with RPMI containing 0.5% FBS and different Cannabis extracts. Extracts were added in triplicate at a concentration of 1-5 μg/mL. DMSO was used as the control and applied in the same amount as in the diluted extracts. An alamarBlue® reagent was used to quantitate viability (according to the manufacturer's Instructions). Viability was measured following 24 h of incubation using fluorescence spectrophotometry at excitation and emission wavelengths of 560 and 590 nm, respectively. Viability was calculated as percent reduction between treated and control cells.

CCRF-CEM cells = assay: AlamarBlue cell viability assay, CCRF-CEM; settings: CBD, CBDV, CF1 separately and in combinations, 24 h
Description: as §2

NICD [2] = assay: Immunoblotting of NICD protein in cells; settings: MOLT-4 cells, 3 μg/mL, 24 h
Description: as §1
Following treatment, cells were solubilized in radioimmunoprecipitation assay buffer (RIPA) (Sigma-Aldrich, R0278) and the protein concentration in lysates were determined using a Bradford reagent (Sigma-Aldrich, B6916). Equal amounts of protein were resolved by Novex™ 4-20% Tris-Glycine Mini Gels (Thermo Fisher Scientific, XP04200BOX) and electrophoretically transferred to a nitrocellulose membrane (Bio-Rad, 1704159S). Membranes were blocked with TBS 0.1% Tween 20 buffer containing 5% bovine serum albumin (Sigma, A7906) for 1 h. The blots were then incubated overnight at 4° C. with Full Notch1 (Millipure ABS90), from Cell Signaling Technology Notch1 V1744 (4147S), c-Myc (13987), Hes1 (11988), anti-cleaved caspase-3 antibody (9664), Phospho-C-Jun (3270), C-Jun (9165), and β-tubulin (clone D3U1W, 86298) and Chac1 (ab76386) from abcam. This was followed by incubation with horseradish peroxidase-labeled matching secondary antibodies. Immunoreactive bands were detected by Luminata™ HRP substrate (Millipore, WBLUR0500) and visualized using a MicroChemi imager (DNR Bioimaging Systems).

Row | Compound | restoration of NICD protein level by proteasome inhibition (NICD [1]) | MOLT-4 cell death / cell apoptosis in viability assay of cannabinoids (MOLT-4 cells) | CCRF-CEM cell apoptosis in viability assay of cannabinoids (CCRF-CEM cells) | NICD levels after cannabinoids (NICD [2])
1 | CC(C)C[C@@H](C=O)NC(=O)[C@H](CC(C)C)NC(=O)[C@H](CC(C)C)NC(=O)OCc1ccccc1 [MG132] (Cbz-Leu-Leu-Leu-aldehyde) | did not restore |  |  | 
2 | C=C(C)[C@@H]1CCC(C)=C[C@H]1c1c(O)cc(CCC)cc1O [CBDV, cannabidivarin] |  | produced cell apoptosis | produced cell apoptosis | decreasing NICD levels
3 | C=C(C)[C@@H]1CCC(C)=C[C@H]1c1c(O)cc(CCCCC)cc1O [CBD, cannabidiol, reference compound] |  | produced cell apoptosis | produced cell apoptosis | decreasing NICD levels
4 | CCCC[C@@H](C=O)NC(=O)[C@H](CC(C)C)NC(=O)[C@H](CC(C)C)NC(C)=O [MG101] (Ac-Leu-Leu-[Nle]-aldehyde) | did not restore |  |  | 
5 | CCCCCc1cc(O)c(C2C=C(C)CCC2C(C)(C)O)c(O)c1 [CF1, 1,3-Benzenediol, 2-[(1R,6R)-6-(1-hydroxy-1-methylethyl)-3-methyl-2cyclohexen-1-yl]-5-pentyl] |  | produced cell apoptosis | produced cell apoptosis | decreasing NICD levels

Reference: patent US12274678B2, “Cannabinoids and uses thereof” (TECHNION RESEARCH & DEVELOPMENT FOUNDATION LIMITED, priority 2019, dated 2025)
